# Assay: photocatalytic hydrogen evolution rate (per 5 mg catalyst); higher = more photocatalytic H2 evolution; extreme values may be limits of the assay
# Details: catalyst mass (mg): 5; Pt cocatalyst (wt%): 3; sacrificial medium: triethylamine/methanol/water 1:1:1
# 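Note: aromatic molecules in triethylamine/methanol/water with Pt photoreduced in situ, irradiated 3 h under a 1 sun AM 1.5G solar simulator (350–1000 nm), H2 quantified by headspace gas chromatography; listed molecule itself used as the photocatalyst at 5 mg per vial.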
row,SMILES,photocatalytic hydrogen evolution rate [µmol/h]
1,CC(C)(C)c1ccc(Nc2ccc(Nc3ccc(C(C)(C)C)cc3)c3c2C(=O)c2c(O)ccc(O)c2C3=O)cc1,0
2,CC(Oc1ccc(Br)cc1Br)C(=O)NN (stereo not drawn),0
3,O=Cc1ccc(O)c(O)c1,0
4,Brc1cccc(Br)n1,0
5,Brc1ccc(-c2ccc(Br)cn2)nc1,0.0242
6,CCCCCCCCC1(CCCCCCCC)c2cc(Br)ccc2-c2ccc(Br)cc21,0
7,OC(c1ccccc1)(c1ccccc1)c1ccccc1,0
8,COc1cc(C#N)c(C#N)cc1OC,0
9,Cc1ccc(-c2ccc(C)cc2)cc1,0
10,Cc1cc(C=O)c(O)c(C=O)c1,7.62
11,N#Cc1cccc(C#N)c1,0
12,CCOC(=O)c1ccc(C(=O)OCC)cc1,0
13,COC(=O)c1ccc(-c2ccc(C(=O)OC)cc2)cc1,0.00435
14,Nc1ccc(-c2ccc(N)c(O)c2)cc1O,0.104
15,Brc1ccc2c(c1)Cc1cc(Br)ccc1-2,0
16,N#Cc1c(F)c(F)c(C#N)c(F)c1F,8.13
17,c1ccc(P(c2ccccc2)c2ccc3ccccc3c2-c2c(P(c3ccccc3)c3ccccc3)ccc3ccccc23)cc1,0
18,COC(=O)c1ccc(C#N)cc1,0
19,CCOC(=O)c1cc(C(=O)OCC)cc(C(=O)OCC)c1,0.0434
20,C1=Cc2nc1c(-c1ccccc1)c1ccc([nH]1)c(-c1ccccc1)c1nc(c(-c3ccccc3)c3ccc([nH]3)c2-c2ccccc2)C=C1,1.32
21,N#Cc1cc(N)ccc1Cl,0
22,c1ccc(N(c2ccccc2)c2ccc(N(c3ccccc3)c3ccccc3)cc2)cc1,0
23,O=c1[nH]cc(Br)nc1Br,0
24,N#Cc1ccnc(C#N)c1,0
25,N#Cc1ccc(C=O)nc1,0.139

row,SMILES,photocatalytic hydrogen evolution rate [µmol/h]
1,N#Cc1ccc(-c2ccc(C#N)cn2)nc1,0
2,O=C(O)c1cc(C(=O)O)cc(-c2cc(C(=O)O)cc(C(=O)O)c2)c1,0
3,Cc1c(C)c(C)c(C=O)c(C)c1C,0.844
4,Nc1ccc2c(c1)C(=O)c1ccc(N)cc1C2=O,0.006
5,c1csc(-c2ccc(-c3cccs3)c3nsnc23)c1,0.84
6,N#CCc1ccc(Cl)nc1,0
7,N#Cc1nc(N)c(N)nc1C#N,0
8,O=C1c2cc3ccccc3cc2C(=O)c2cc3ccccc3cc21,6.86
9,COC(=O)c1cc(C(=O)OC)c(C(=O)OC)cc1C(=O)OC,0
10,COc1c(Br)cc(Br)cc1Br,0
11,O=C1C=CC(=O)c2c(O)cccc21,0
12,CCn1c2ccccc2c2cc(C=O)ccc21,2.45
13,O=Cc1ccc(-c2cccnc2)cc1,3.58
14,N#Cc1ccc(C#N)cc1,0
15,Brc1ccc(Br)cc1,0
16,O=Cc1cncnc1,0.0364
17,O=C1C=C(Br)C(=O)C=C1Br,0
18,N#Cc1ccc(-c2ccc(C#N)nc2)cn1,0.0601
19,O=C(O)c1ccc(-c2cc(-c3ccccn3)nc(-c3ccccn3)c2)cc1,0.441
20,O=Cc1ccc(-c2ccccc2)cc1,4.67
21,Fc1c(F)c(Br)c2nsnc2c1Br,2.63
22,Nc1cc(Br)ccc1-c1ccc(Br)cc1N,0.0732
23,O=C(O)c1cc(C(=O)O)cc(-c2ccc(-c3cc(C(=O)O)cc(C(=O)O)c3)cc2)c1,0.0522
24,O=Cc1ccc(Oc2ccc(C=O)cc2)cc1,2.42
25,O=C(O)Cc1ccc(-c2ccccc2)cc1,0.0393

row,SMILES,photocatalytic hydrogen evolution rate [µmol/h]
1,COC(=O)c1cccc(C(=O)OC)c1,0.023
2,N#CCc1cccc(CC#N)c1,0
3,COc1ccc(C=O)cc1O,0
4,COc1cc(C=O)c(OC)cc1C=O,1.37
5,O=Cc1ccc(N(c2ccccc2)c2ccc(C=O)cc2)cc1,1.17
6,O=Cc1ccccc1P(c1ccccc1)c1ccccc1,0.079
7,Nc1cccc(N)c1,0
8,Oc1ccc(I)cc1,0
9,CC(=O)c1ccc(-c2ccc(C(C)=O)cc2)cc1,3.67
10,c1ccc2cc3cc4ccccc4cc3cc2c1,0.162
11,O=Cc1cccc(C=O)c1,1.65
12,Brc1ccc(I)cc1,0
13,O=Cc1cc(F)c(O)c(F)c1,0.191
14,Brc1c(Br)c(Br)c(Br)c(Br)c1Br,0
15,N#CC(C#N)=c1cc(F)c(=C(C#N)C#N)cc1F,0
16,N#Cc1nccnc1C#N,0
17,O=Cc1ccc(-c2ccc(C=O)cc2)cc1,8.89
18,N#Cc1ccnc(Br)c1,0.0187
19,C#Cc1ccccc1C#N,0
20,Nc1ccc(-c2ccc(N)c([N+](=O)[O-])c2)cc1[N+](=O)[O-],0
21,NNC(=O)c1cc(Br)c(O)c(Br)c1,0
22,O=C(c1ccccc1)c1cc(C(=O)c2ccccc2)cc(C(=O)c2ccccc2)c1,14.2
23,O=Cc1ccc(C#Cc2ccccc2)cc1,1.66
24,O=C(O)c1ccc(N=Nc2ccccc2)cc1,0
25,O=Cc1ccc(N(c2ccccc2)c2ccc(-c3ccc(N(c4ccccc4)c4ccc(C=O)cc4)cc3)cc2)cc1,0

row,SMILES,photocatalytic hydrogen evolution rate [µmol/h]
1,N#Cc1c[nH]c2ccc(Br)cc12,0.015
2,Nc1nc2ccccc2[nH]1,0
3,CC(C)(O)c1ccc(C(C)(C)O)cc1,0.00118
4,Cc1cc(N)ccc1C#N,0
5,Nc1ccc2ccc3cccc4ccc1c2c34,0
6,O=C1CCc2cccc(O)c21,2.68
7,Brc1ccc2c3ccc(Br)cc3n(-c3ccccc3)c2c1,0.0572
8,OB(O)c1ccc(B(O)O)cc1,0.053
9,O=Cc1ccc2nsnc2c1,0
10,c1ccc(-c2cccc(-c3ccccc3)c2)cc1,0
11,N#Cc1cc(Br)ccc1Br,0
12,Brc1ccc(-c2cc(-c3ccc(Br)cc3)cc(-c3ccc(Br)cc3)c2)cc1,0
13,N#CCc1ccc(CC#N)cc1,0
14,c1ccc2c(c1)CCc1ccccc1N2,0
15,O=Cc1c(O)cc(O)cc1O,0
16,COC(=O)c1ccc(B(O)O)cc1,0.0394
17,C(C#Cc1ccccc1)#Cc1ccccc1,0
18,Nc1cc(C(=O)O)cc(C(=O)O)c1,0
19,Brc1ccc(Br)c2nonc12,0
20,CC(=O)c1cc(C(C)=O)cc(C(C)=O)c1,1.98
21,O=Cc1ccc(-c2ccc(F)cc2)cc1,5.25
22,C#Cc1ccc(N)cc1,0
23,Brc1cnc2c(ccc3cc(Br)cnc32)c1,0.655
24,CC(=O)c1ccc(C(C)=O)cc1,5.52
25,N#Cc1c(-n2c3ccccc3c3ccccc32)c(-n2c3ccccc3c3ccccc32)cc(-n2c3ccccc3c3ccccc32)c1-n1c2ccccc2c2ccccc21,1.65

row,SMILES,photocatalytic hydrogen evolution rate [µmol/h]
1,O=Cc1ccc(-c2ccncc2)cc1,3.29
2,Nc1cc(Br)ccc1Br,0
3,N#Cc1ccc(Br)nc1,0
4,O=Cc1cccc(-c2ccccc2)c1,3.14
5,Brc1ccc2ccccc2c1-c1c(Br)ccc2ccccc12,0
6,Fc1c(Br)cccc1Br,0
7,O=S1(=O)c2ccc(Br)cc2-c2cc(Br)ccc21,0.009
8,Cn1c2ccc(Br)cc2c(=O)c2cc(Br)ccc21,9.21
9,c1cc2ccc3ccc4ccc5ccc6ccc1c1c2c3c4c5c61,0
10,N#Cc1ccc(C=O)cc1F,0.104
11,N#Cc1ccc(-c2ccccc2C#N)cc1,0
12,CC(C)(C)c1ccnc(-c2cc(C(C)(C)C)ccn2)c1,0.236
13,Oc1ccc(-c2ccc(O)cc2)cc1,0.00401
14,N#Cc1cccc(Br)n1,0
15,CCCCCCCCCCCCC1(CCCCCCCCCCCC)c2cc(B(O)O)ccc2-c2ccc(B(O)O)cc21,0.132
16,N#Cc1csc(Br)n1,0
17,COC(=O)c1ccc2cc(B3OC(C)(C)C(C)(C)O3)ccc2c1,1.49
18,ClCc1c2ccccc2c(CCl)c2ccccc12,0
19,CC(C)(C)c1ccc(C(=O)CC#N)cc1,0.0435
20,O=Cc1ccc(-c2cc(-c3ccc(C=O)cc3)c3ccc4c(-c5ccc(C=O)cc5)cc(-c5ccc(C=O)cc5)c5ccc2c3c54)cc1,3.19
21,O=Cc1ccc(N2CCS(=O)(=O)CC2)cc1,2.73
22,COc1ccc(B(O)O)cc1,0
23,N#Cc1cnc(N)c(C#N)c1,0.468
